Source: ChEMBL document CHEMBL1777801, “3-Oxo-2-piperazinyl acetamides as potent bradykinin B1 receptor antagonists for the treatment of pain and inflammation” (Bioorg Med Chem Lett, 2011)
One block for each molecule: values may come before it.

Experiments:
in vivo [1] = conditions: Sprague-Dawley, rat, iv, 1 mg/kg
in vivo [2] = conditions: Sprague-Dawley, rat, po, 10 mg/kg
in vivo [3] = conditions: Sprague-Dawley, rat, iv, 1 mg/kg; remark: listed apart in the source
[4] = Half life in dog at 1 mg/kg, iv; format: ADME, organism-based, Canis lupus familiaris; set-up: dose 1 mg/kg, route intravenous; conditions: in vivo
[5] = Volume of distribution at steady state in rhesus monkey at 1 mg/kg, iv; format: ADME, organism-based, Macaca mulatta; set-up: dose 1 mg/kg, route intravenous; conditions: in vivo, read-out: Vdss
[6] = Volume of distribution at steady state in cynomolgus monkey at 1 mg/kg, iv; format: ADME, organism-based, Macaca fascicularis; set-up: dose 1 mg/kg, route intravenous; conditions: in vivo, read-out: Vdss
[7] = Oral bioavailability in rabbit at 5 mg/kg; format: ADME, organism-based, Oryctolagus cuniculus; conditions: in vivo
[8] = Clearance in mouse at 1 mg/kg, iv; format: ADME, organism-based; set-up: dose 1 mg/kg, route intravenous; conditions: in vivo
[9] = Half life in Sprague-Dawley rat at 1 mg/kg, iv administered as bolus dose; format: ADME, organism-based; set-up: dose 1 mg/kg, route intravenous; conditions: in vivo
[10] = Half life in mouse at 1 mg/kg, iv; format: ADME, organism-based; set-up: dose 1 mg/kg, route intravenous; conditions: in vivo
[11] = Oral bioavailability in cynomolgus monkey at 5 mg/kg; format: ADME, organism-based, Macaca fascicularis; conditions: in vivo
[12] = Clearance in cynomolgus monkey at 1 mg/kg, iv; format: ADME, organism-based, Macaca fascicularis; set-up: dose 1 mg/kg, route intravenous; conditions: in vivo
[13] = Volume of distribution at steady state in dog at 1 mg/kg, iv; format: ADME, organism-based, Canis lupus familiaris; set-up: dose 1 mg/kg, route intravenous; conditions: in vivo, read-out: Vdss
[14] = Clearance in dog at 1 mg/kg, iv; format: ADME, organism-based, Canis lupus familiaris; set-up: dose 1 mg/kg, route intravenous; conditions: in vivo
[15] = Oral bioavailability in dog at 3 mg/kg; format: ADME, organism-based, Canis lupus familiaris; conditions: in vivo
[16] = Oral bioavailability in mouse at 10 mg/kg; format: ADME, organism-based; conditions: in vivo
[17] = Half life in cynomolgus monkey at 1 mg/kg, iv; format: ADME, organism-based, Macaca fascicularis; set-up: dose 1 mg/kg, route intravenous; conditions: in vivo
[18] = Clearance in rhesus monkey at 1 mg/kg, iv; format: ADME, organism-based, Macaca mulatta; set-up: dose 1 mg/kg, route intravenous; conditions: in vivo
[19] = Volume of distribution at steady state in rabbit at 1 mg/kg, iv; format: ADME, organism-based, Oryctolagus cuniculus; set-up: dose 1 mg/kg, route intravenous; conditions: in vivo, read-out: Vdss
[20] = Volume of distribution at steady state in mouse at 1 mg/kg, iv; format: ADME, organism-based; set-up: dose 1 mg/kg, route intravenous; conditions: in vivo, read-out: Vdss
[21] = Half life in rabbit at 1 mg/kg, iv; format: ADME, organism-based, Oryctolagus cuniculus; set-up: dose 1 mg/kg, route intravenous; conditions: in vivo
[22] = Oral bioavailability in rhesus monkey at 5 mg/kg; format: ADME, organism-based, Macaca mulatta; conditions: in vivo
[23] = Clearance in rabbit at 1 mg/kg, iv; format: ADME, organism-based, Oryctolagus cuniculus; set-up: dose 1 mg/kg, route intravenous; conditions: in vivo
[24] = Half life in rhesus monkey at 1 mg/kg, iv; format: ADME, organism-based, Macaca mulatta; set-up: dose 1 mg/kg, route intravenous; conditions: in vivo

clearance (in vivo [1]): 112 mL/min/kg
bioavailability (in vivo [2]): 19%
Vd (in vivo [3]): 11.9 L/kg
Structure (SMILES): O=C(C[C@@H]1C(=O)NCCN1S(=O)(=O)c1ccc(Cl)cc1)N[C@@H]1CCCc2cc(CN3CCCCC3)ccc21

half-life [4]: 4.6 h
Vd [5]: 5.9 L/kg
Vd [6]: 1.6 L/kg
bioavailability [7]: 5%
clearance [8]: 133 mL/min/kg
half-life [9]: 4.8 h
half-life [10]: 1.4 h
bioavailability [11]: 17%
clearance [12]: 10 mL/min/kg
Vd [13]: 16.2 L/kg
clearance [14]: 63.3 mL/min/kg
bioavailability [15]: 24%
clearance (in vivo [1]): 123 mL/min/kg
bioavailability [16]: 6%
half-life [17]: 5.6 h
clearance [18]: 30 mL/min/kg
Vd [19]: 6.4 L/kg
Vd [20]: 6 L/kg
bioavailability (in vivo [2]): 6%
half-life [21]: 2.4 h
bioavailability [22]: 23%
clearance [23]: 53.3 mL/min/kg
Vd (in vivo [3]): 9.3 L/kg
half-life [24]: 3.2 h
Structure (SMILES): Cc1ccc(S(=O)(=O)N2CCNC(=O)[C@H]2CC(=O)N[C@@H]2CCCc3cc(CN4CCCCC4)ccc32)cc1

clearance (in vivo [1]): 90 mL/min/kg
Vd (in vivo [3]): 9.9 L/kg
Structure (SMILES): O=C(C[C@@H]1C(=O)NCCN1S(=O)(=O)c1ccccc1)N[C@@H]1CCCc2cc(CN3CCCCC3)ccc21

Structure (SMILES): Cc1ccc(S(=O)(=O)N2CCNC(=O)[C@H]2CC(=O)N[C@@H]2CCCc3cc(CNCC(C)(C)C)ccc32)cc1
clearance (in vivo [1]): 30 mL/min/kg
bioavailability (in vivo [2]): 16%
Vd (in vivo [3]): 3.4 L/kg

Structure (SMILES): Cc1ccc(S(=O)(=O)N2CCNC(=O)[C@H]2CC(=O)N[C@@H]2CCCc3cc(CNC(C)(C)C)ccc32)cc1
clearance (in vivo [1]): 56.7 mL/min/kg
bioavailability (in vivo [2]): 0.3%
Vd (in vivo [3]): 8.34 L/kg
